Reference: US20070191372A1, “Dna-targeted benzotriazine 1,4-dioxides and their use in cancer therapy” (Auckland Uniservices Limited, priority 2002, published 2007)

Assays:
[1] = system: human colon carcinoma HT-29; assay: Clonogenic assay under aerobic and hypoxic conditions, HT-29; type: cell-based; settings: HT 29 cells; for C10 hypoxic: 60 min drug exposure, concentration reducing plating efficiency to 10% of controls; for HCR: ratio of C10 under aerobic and hypoxic conditions; for RHT: ratio of hypoxic TPZ C10 to hypoxic compound C10
Method: (§1) Evaluation of the Cytotoxicity of Compounds by Clonogenic Assay Under Aerobic and Hypoxic Conditions.
(§2) Compounds representative of the invention were evaluated under both aerobic and hypoxic conditions in clonogenic assays, using three cell lines: human colon carcinoma HT-29, murine SCCVII, and human lung adenocarcinoma LXFL. Clonogenic survival was determined using aerobic and hypoxic SCCVII cell suspensions. Drug exposures were performed using continuously stirred and gassed single cell suspensions (10^6 cells/mL) at 37° C., equilibrated with 5% CO2 in air or N2 for 60 min before drug addition. After a 60 min drug exposure cells were washed by centrifugation and plated to determine colony formation Cytotoxicity was measured as the concentration required to reduce plating efficiency to 10% of controls (C10). The hypoxic cytotoxicity ratio (HCR) was determined as the ratio of the C10 values under aerobic and hypoxic conditions. The relative hypoxic toxicity (RHT) was determined as the ratio of hypoxic TPZ C10 to hypoxic BTO C10. Abbreviations used in Table 2 are:
(§3) C10=The concentration of drug (in micromolar) to reduce viable cell numbers to 10% of those of control cell cultures grown under the same conditions but not exposed to drug
(§4) RHT=Relative hypoxic toxicity is defined as the ratio of concentrations of Tirapazamine/test compound to give equal cell killing under hypoxic conditions.
(§5) HCR=Hypoxic cytotoxicity ratio is defined as the ratio of drug concentrations under aerobic and hypoxic condition to produce equal cell survival (10%) determined by clonogenic assay

murine SCCVII = assay: Clonogenic assay under aerobic and hypoxic conditions, SCCVII; type: cell-based; settings: SCVIII cells; for IC90: Mus musculus, 1 h, hypoxic, 60 min drug exposure, SN (hypoxic), read-out: C10 hypoxic; for HCR: ratio of C10 under aerobic and hypoxic conditions; for RHT: ratio of hypoxic TPZ C10 to hypoxic compound C10
Method: as §1, §2, §3, §4, §5

[2] = system: human lung adenocarcinoma LXFL; assay: Clonogenic assay under aerobic and hypoxic conditions, LXFL; type: cell-based; settings: LXFL cells; for C10 hypoxic: 60 min drug exposure; for HCR: ratio of C10 under aerobic and hypoxic conditions; for RHT: ratio of hypoxic TPZ C10 to hypoxic compound C10
Method: as §1, §2, §3, §4, §5

[3] = system: human colon carcinoma HT-29; assay: Proliferation assay (IC50) under aerobic and hypoxic conditions, HT-29; type: cell-based; settings: for RHT: HT-29, ratio Tirapazamine/test compound under hypoxic conditions; for HCR: HT-29, ratio of IC50 under aerobic and hypoxic conditions; for IC50: Homo sapiens, HT-29, hypoxic (anoxia <0.001% O2), 4 h exposure
Method: (§6) Evaluation of the Cytotoxicity of Compounds by Proliferation Assay (IC50) Under Aerobic and Hypoxic Conditions.
(§7) Compounds representative of the invention were evaluated under both aerobic and hypoxic conditions in a proliferation assay (IC50), using two cell lines: human colon carcinoma HT-29, and human cervical carcinoma SiHa.
(§8) Drug exposures were performed in 96-well plates (Nunc) using either a 37° C. humidified incubator (20% O2, 5% CO2) or in the incubator compartment (37° C.) of an anaerobic chamber (Shell Lab) where palladium catalyst scrubbed gas (90% N2, 5% H2, 5% CO2) ensures severe anoxia (<0.001% O2). For each experiment, compounds were simultaneously tested under both oxic and hypoxic conditions against the HT-29 cell line and included TPZ as an independent internal control at the front and back of the assay (n=2). Final data was pooled from a series of seven independent experiments and is calculated using inter-experimental means. In all cases, 8-methyl-5-nitroquinoline was used as a second internal control to confirm that strict hypoxia was present during the experiment. (Siim et al. Br. J. Cancer 1994, 70, 596-603). Cell cultures were grown in αMEM (Gibco) containing 5% heat inactivated FCS and maintained in exponential growth phase. For each individual experiment an appropriate number of cells were seeded (HT-29=1000) into wells in αMEM÷10% FCS+10 mM added glucose+100 μM 2′-deoxycytidine (2′dCyd), and allowed to attach for 3 h. High glucose (final concentration 17 mM) and the presence of 2′-dCyd minimize hypoxia-induced cell cycle arrest. Replicates were then exposed to BTOs, using 2-fold serial dilutions in triplicate, for a further 4 h. Subsequently cells were washed free of compound using complete media (without glucose/2′-dCyd) and allowed to grow for 5 (oxic) or 6 (anoxic) days. Plates were stained as described previously (Wilson et al., J. Med. Chem. 1989, 32, 31-38) and IC50 values determined.
(§9) IC50=The concentration of drug (in micromolar) to reduce viable cell numbers to 50% of those of control cell cultures grown under the same conditions but not exposed to drug
as §4
(§10) HCR=Hypoxic cytotoxicity ratio is defined as the ratio of drug concentrations under aerobic and hypoxic condition to produce equal cell survival (50%) determined by proliferation assay

[4] = system: human cervical carcinoma SiHa; assay: Proliferation assay (IC50) under aerobic and hypoxic conditions, SiHa; type: cell-based
Method: as §6, §7, §8, §9, §4, §10

[5] = cited from earlier work

SMILES | C10 hypoxic [1] [µM] | HCR [1] | RHT [1] | IC90 (murine SCCVII) [nM] | HCR (murine SCCVII) | RHT (murine SCCVII) | C10 hypoxic [2] [µM] | HCR [2] | RHT [2] | RHT [3] | HCR [3] | IC50 [3] [nM] | IC50 ([4]; Homo sapiens, hypoxic, 4 h exposure) [nM] | RHT ([4]; ratio Tirapazamine/test compound under hypoxic conditions) | HCR ([4]; ratio of IC50 under aerobic and hypoxic conditions) | activity under aerobic or hypoxic conditions [5]
[O-][n+]1nc(NCCCCCCNc2c3ccccc3nc3ccccc23)[n+]([O-])c2ccccc21 [Compound 11, N^1-(9-Acridinyl)-N^6-(1,4-dioxido-1,2,4-benzotriazin-3-yl)-1,6-hexanediamine] | 0.12 | 83.0 | 416 | 480 | 20.0 | 16.7 | 0.04 | 35.0 | 450 | 370 | 38 | 16 |  |  |  | 
O=C(NCCCNCCCNc1n[n+]([O-])c2ccccc2[n+]1[O-])c1cccc2cc3ccccc3nc12 [Compound 30, N-[3-({3-[(1,4-Dioxido-1,2,4-benzotriazin-3-yl)amino]propyl}amino)propyl]-4-acridinecarboxamide] | 0.9 | 33.0 | 78 | 300 | 21.3 | 20 | 0.4 | 12.5 | 50 | 90 | 167 | 65 | 31 | 121 | 41 | 
Nc1nc2ccccc2[n+]([O-])n1 [SR 4317] |  |  |  |  |  |  |  |  |  |  |  |  |  |  |  | inactive
Nc1nnc2ccccc2n1 [SR 4330] |  |  |  |  |  |  |  |  |  |  |  |  |  |  |  | inactive
